One compound from ChEMBL document CHEMBL4311992, “Discovery of 3-(((9H-purin-6-yl)amino)methyl)-4,6-dimethylpyridin-2(1H)-one derivatives as novel tubulin polymerization inhibitors for treatment of cancer” (Eur J Med Chem, 2019) can be followed below.

Activity calls are given as the source filed them. The calls are words filed in the database; no cut-off is given here.

The species named for one series is Homo sapiens. The experiment in a line: Inhibition of recombinant human ARAF Y301D/Y302D mutant (273 to end residues) assessed as residual activity at 10 uM using myelin basic protein as substrate measured after 40 mins in presence of [gamma33P]ATP by scintillation counting method.
Series [1] addresses Dual specificity mitogen-activated protein kinase kinase 4 (Homo sapiens) (UniProt P45985). The experiment in a line: Inhibition of recombinant human MKK4 (34 to end residues) assessed as residual activity at 10 uM using unactive JNK1a1 as substrate measured after 40 mins in presence of [gamma33P]ATP by scintillation counting method.
Series [2] addresses Serine/threonine-protein kinase PAK 3 (Homo sapiens) (UniProt O75914). The experiment in a line: Inhibition of recombinant full-length human PAK3 assessed as residual activity at 10 uM using RRRLSFAEPG as substrate measured after 40 mins in presence of [gamma33P]ATP by scintillation counting method.
A short description of series [3]: Toxicity in nude BALB/c mouse assessed as change in glucose level at 40 to 80 mg/kg, po once daily for 4 weeks measured post-last dose. It is filed as organism-based. The conditions noted are these: in vivo, 672 h.
Series [4] is described as follows: Toxicity in nude BALB/c mouse assessed as change in globulin level at 40 to 80 mg/kg, po once daily for 4 weeks measured post-last dose. It is filed as organism-based. The conditions noted are these: in vivo, 672 h.
In series [5] the target is Misshapen-like kinase 1 (Homo sapiens) (UniProt Q8N4C8). Description: Inhibition of recombinant human MINK (1 to 310 residues) assessed as residual activity at 10 uM using myelin basic protein as substrate measured after 40 mins in presence of [gamma33P]ATP by scintillation counting method.
For another series, the system named is DLD-1. The experiment in a line: Antiproliferative activity against human DLD1 cells assessed as reduction in cell viability after 72 hrs by MTT assay. The format is functional, cell-based. The conditions noted are these: DLD-1, 72 h.
Series [6] deals with Testis-specific serine/threonine-protein kinase 4 (Homo sapiens) (UniProt Q6SA08). Description: Inhibition of recombinant full-length human TSSK4 assessed as residual activity at 10 uM using KKLNRTLSFAEPG as substrate measured after 40 mins in presence of [gamma33P]ATP by scintillation counting method.
The target of series [7] is Serine/threonine-protein kinase Nek1 (Homo sapiens) (UniProt Q96PY6). Description: Inhibition of recombinant human NEK1 (1 to 505 residues) assessed as residual activity at 10 uM using RLGRDKYKTLRQIRQ as substrate measured after 40 mins in presence of [gamma33P]ATP by scintillation counting method.
Series [8] addresses Cytoplasmic tyrosine-protein kinase BMX (Homo sapiens) (UniProt P51813). Description: Inhibition of full-length recombinant human BMX assessed as residual activity at 10 uM using poly(Glu, Tyr) 4:1 as substrate measured after 40 mins in presence of [gamma33P]ATP by scintillation counting method.
Series [9] concerns the target Myosin light chain kinase 2, skeletal/cardiac muscle (Homo sapiens) (UniProt Q9H1R3). Description: Inhibition of recombinant full-length human MYLK2 assessed as residual activity at 10 uM using KKLNRTLSFAEPG as substrate measured after 40 mins in presence of [gamma33P]ATP by scintillation counting method.
A further series concerns SW-620. Description: Cell cycle arrest in human SW620 cells assessed as up regulation of CyclinB1 expression up to 150 nM after 24 hrs by Western blot analysis. The format is functional, cell-based. A general note: Immunoblotting shows a protein as a band on a membrane.
Series [10] concerns the target Mitogen-activated protein kinase 8 (Homo sapiens) (UniProt P45983). The experiment in a line: Inhibition of recombinant full-length human JNK1alpha1 assessed as residual activity at 10 uM using ATF2 as substrate measured after 40 mins in presence of [gamma33P]ATP by scintillation counting method.
Series [11] relates to Mast/stem cell growth factor receptor Kit (Homo sapiens), P10721 [V560G]. The experiment in a line: Inhibition of recombinant human c-Kit V560G mutant (544 to end residues) assessed as residual activity at 10 uM using GGMEDIYFEFMGGKKK as substrate measured after 40 mins in presence of [gamma33P]ATP by scintillation counting method.
Series [12] concerns Homeodomain-interacting protein kinase 2 (Homo sapiens), Q9H2X6 [UNDEFINED MUTATION]. Description: Inhibition of recombinant human HIPK2 I471N mutant (165 to 564 residues) assessed as residual activity at 10 uM using myelin basic protein as substrate measured after 40 mins in presence of [gamma33P]ATP by scintillation counting method.
For series [13], the target named is Death-associated protein kinase 2 (Homo sapiens) (UniProt Q9UIK4). The experiment in a line: Inhibition of recombinant full-length human DAPK2 assessed as residual activity at 10 uM using calmodulin as substrate measured after 40 mins in presence of [gamma33P]ATP by scintillation counting method.
Series [14] addresses cGMP-dependent protein kinase 1 (Homo sapiens) (UniProt Q13976). The experiment in a line: Inhibition of recombinant full-length human PKG1alpha assessed as residual activity at 10 uM using RRRLSFAEPG as substrate measured after 40 mins in presence of [gamma33P]ATP by scintillation counting method.
Series [15] concerns the target Interferon-induced, double-stranded RNA-activated protein kinase (Homo sapiens) (UniProt P19525). Description: Inhibition of recombinant human PKR (252 to end residues) assessed as residual activity at 10 uM using RSRSRSRSRSRSRSR as substrate measured after 40 mins in presence of [gamma33P]ATP by scintillation counting method.
The target of series [16] is Tyrosine-protein kinase ABL2 (Homo sapiens) (UniProt P42684). Description: Inhibition of recombinant human ARG (38 to end residues) assessed as residual activity at 10 uM using EAIYAAPFAKKK as substrate measured after 40 mins in presence of [gamma33P]ATP by scintillation counting method.
Series [17] has as its target Calcium/calmodulin-dependent protein kinase type II subunit delta (Homo sapiens) (UniProt Q13557). The experiment in a line: Inhibition of recombinant full-length human CaMK2delta assessed as residual activity at 10 uM using calmodulin as substrate measured after 40 mins in presence of [gamma33P]ATP by scintillation counting method.
Series [18] deals with Tyrosine-protein kinase HCK (Homo sapiens) (UniProt P08631). Description: Inhibition of recombinant human activated HCK (230 to 497 residues) assessed as residual activity at 10 uM using GGMEDIYFEFMGGKKK as substrate measured after 40 mins in presence of [gamma33P]ATP by scintillation counting method.
Series [19] addresses Phosphatidylinositol 4-phosphate 3-kinase C2 domain-containing subunit alpha (Homo sapiens) (UniProt O00443). The experiment in a line: Inhibition of recombinant human PI3KC2alpha (299 to end residues) assessed as residual activity at 10 uM using phosphatidylinositol as substrate measured after 40 mins by HTRF assay.
The target of series [20] is Serine/threonine-protein kinase 24 (Homo sapiens) (UniProt Q9Y6E0). Description: Inhibition of recombinant human MST3 (1 to 304 residues) assessed as residual activity at 10 uM using ERMRPRKRQGSVRRRV as substrate measured after 40 mins in presence of [gamma33P]ATP by scintillation counting method.
The target in series [21] is [Pyruvate dehydrogenase (acetyl-transferring)] kinase isozyme 4, mitochondrial (Homo sapiens) (UniProt Q16654). Description: Inhibition of recombinant full-length human PDHK4 assessed as residual activity at 10 uM using KKKYHGHSMSDPGVSYRT as substrate measured after 40 mins in presence of [gamma33P]ATP by scintillation counting method.
Chain of [Pyruvate dehydrogenase (acetyl-transferring)] kinase isozyme 4, mitochondrial (Homo sapiens) (Q16654 whole entry, looked up): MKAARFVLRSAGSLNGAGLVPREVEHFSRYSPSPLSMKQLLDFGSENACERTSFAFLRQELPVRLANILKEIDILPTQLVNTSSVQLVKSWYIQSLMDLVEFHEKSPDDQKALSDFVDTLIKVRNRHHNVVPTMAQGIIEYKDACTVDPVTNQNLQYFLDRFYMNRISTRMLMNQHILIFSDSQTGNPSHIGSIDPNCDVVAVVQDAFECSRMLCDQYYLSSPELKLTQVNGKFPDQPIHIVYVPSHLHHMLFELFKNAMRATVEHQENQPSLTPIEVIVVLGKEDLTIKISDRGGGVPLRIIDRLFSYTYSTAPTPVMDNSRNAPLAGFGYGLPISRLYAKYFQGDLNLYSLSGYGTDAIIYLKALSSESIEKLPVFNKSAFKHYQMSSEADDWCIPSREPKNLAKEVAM

Chain of Death-associated protein kinase 2 (Homo sapiens) (Q9UIK4 whole entry, looked up): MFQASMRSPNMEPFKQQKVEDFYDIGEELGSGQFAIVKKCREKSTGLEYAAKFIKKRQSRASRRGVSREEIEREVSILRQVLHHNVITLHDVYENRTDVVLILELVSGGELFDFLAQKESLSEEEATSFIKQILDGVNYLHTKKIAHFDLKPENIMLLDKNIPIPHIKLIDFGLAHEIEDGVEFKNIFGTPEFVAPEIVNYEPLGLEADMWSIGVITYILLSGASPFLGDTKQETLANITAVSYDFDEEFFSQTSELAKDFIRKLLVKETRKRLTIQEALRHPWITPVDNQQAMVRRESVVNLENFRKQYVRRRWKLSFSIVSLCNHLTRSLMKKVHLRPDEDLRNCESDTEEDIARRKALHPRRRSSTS
Chain of Serine/threonine-protein kinase PAK 3 (Homo sapiens) (O75914 whole entry, looked up): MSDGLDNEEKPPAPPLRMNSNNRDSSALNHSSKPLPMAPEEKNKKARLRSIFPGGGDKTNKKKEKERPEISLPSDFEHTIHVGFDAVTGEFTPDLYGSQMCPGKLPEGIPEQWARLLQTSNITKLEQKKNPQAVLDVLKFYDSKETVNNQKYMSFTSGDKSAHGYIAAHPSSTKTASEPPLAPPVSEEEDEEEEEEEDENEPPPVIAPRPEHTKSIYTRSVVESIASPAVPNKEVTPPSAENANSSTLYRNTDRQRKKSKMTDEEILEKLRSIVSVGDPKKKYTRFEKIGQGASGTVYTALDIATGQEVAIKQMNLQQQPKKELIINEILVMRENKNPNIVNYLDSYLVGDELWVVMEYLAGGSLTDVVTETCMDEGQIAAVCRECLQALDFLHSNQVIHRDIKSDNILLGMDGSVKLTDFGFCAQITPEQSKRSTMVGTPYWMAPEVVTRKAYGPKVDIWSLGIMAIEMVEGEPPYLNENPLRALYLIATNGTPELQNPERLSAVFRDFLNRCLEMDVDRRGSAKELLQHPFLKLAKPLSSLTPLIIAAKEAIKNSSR
Chain of Myosin light chain kinase 2, skeletal/cardiac muscle (Homo sapiens) (Q9H1R3 whole entry): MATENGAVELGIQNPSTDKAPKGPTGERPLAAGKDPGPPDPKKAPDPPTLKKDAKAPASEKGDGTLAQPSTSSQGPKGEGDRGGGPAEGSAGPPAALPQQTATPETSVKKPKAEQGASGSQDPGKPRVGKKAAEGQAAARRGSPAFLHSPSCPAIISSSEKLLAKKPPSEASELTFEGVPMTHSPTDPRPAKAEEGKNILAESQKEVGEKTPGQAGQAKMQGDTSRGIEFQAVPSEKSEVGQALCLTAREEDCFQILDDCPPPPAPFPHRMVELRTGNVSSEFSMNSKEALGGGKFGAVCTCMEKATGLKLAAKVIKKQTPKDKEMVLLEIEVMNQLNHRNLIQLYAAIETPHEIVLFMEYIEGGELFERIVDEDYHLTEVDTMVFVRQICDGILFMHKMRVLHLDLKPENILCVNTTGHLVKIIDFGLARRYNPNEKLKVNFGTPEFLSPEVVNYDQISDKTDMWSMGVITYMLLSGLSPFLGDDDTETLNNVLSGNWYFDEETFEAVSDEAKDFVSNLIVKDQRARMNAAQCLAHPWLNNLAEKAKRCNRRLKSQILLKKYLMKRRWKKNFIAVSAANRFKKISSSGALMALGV
Chain of Mast/stem cell growth factor receptor Kit (Homo sapiens), P10721 [V560G] (P10721 whole entry V560G, the tested form may be a part): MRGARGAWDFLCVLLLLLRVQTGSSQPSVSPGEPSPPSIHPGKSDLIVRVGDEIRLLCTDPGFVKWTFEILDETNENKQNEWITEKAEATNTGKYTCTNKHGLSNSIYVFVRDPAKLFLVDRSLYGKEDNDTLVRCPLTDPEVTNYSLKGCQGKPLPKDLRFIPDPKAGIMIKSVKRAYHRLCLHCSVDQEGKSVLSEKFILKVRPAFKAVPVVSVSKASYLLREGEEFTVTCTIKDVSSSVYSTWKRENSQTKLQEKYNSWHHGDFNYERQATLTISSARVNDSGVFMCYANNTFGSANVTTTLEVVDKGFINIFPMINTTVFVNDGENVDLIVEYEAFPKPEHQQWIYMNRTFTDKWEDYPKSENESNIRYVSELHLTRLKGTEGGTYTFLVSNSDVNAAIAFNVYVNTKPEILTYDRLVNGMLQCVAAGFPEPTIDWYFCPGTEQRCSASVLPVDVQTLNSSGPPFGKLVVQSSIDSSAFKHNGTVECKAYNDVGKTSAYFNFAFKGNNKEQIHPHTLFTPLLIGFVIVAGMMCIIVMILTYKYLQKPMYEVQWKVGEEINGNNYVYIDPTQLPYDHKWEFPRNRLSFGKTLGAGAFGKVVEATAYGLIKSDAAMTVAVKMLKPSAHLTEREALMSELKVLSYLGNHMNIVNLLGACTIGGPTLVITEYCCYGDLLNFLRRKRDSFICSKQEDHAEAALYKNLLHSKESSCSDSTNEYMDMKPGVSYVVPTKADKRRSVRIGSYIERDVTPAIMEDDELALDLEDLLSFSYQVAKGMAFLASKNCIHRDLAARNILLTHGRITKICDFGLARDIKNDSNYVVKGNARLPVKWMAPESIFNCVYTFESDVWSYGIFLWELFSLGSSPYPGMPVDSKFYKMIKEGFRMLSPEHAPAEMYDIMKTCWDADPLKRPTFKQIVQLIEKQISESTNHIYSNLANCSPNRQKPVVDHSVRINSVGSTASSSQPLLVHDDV
Chain of Tyrosine-protein kinase ABL2 (Homo sapiens) (P42684 whole entry): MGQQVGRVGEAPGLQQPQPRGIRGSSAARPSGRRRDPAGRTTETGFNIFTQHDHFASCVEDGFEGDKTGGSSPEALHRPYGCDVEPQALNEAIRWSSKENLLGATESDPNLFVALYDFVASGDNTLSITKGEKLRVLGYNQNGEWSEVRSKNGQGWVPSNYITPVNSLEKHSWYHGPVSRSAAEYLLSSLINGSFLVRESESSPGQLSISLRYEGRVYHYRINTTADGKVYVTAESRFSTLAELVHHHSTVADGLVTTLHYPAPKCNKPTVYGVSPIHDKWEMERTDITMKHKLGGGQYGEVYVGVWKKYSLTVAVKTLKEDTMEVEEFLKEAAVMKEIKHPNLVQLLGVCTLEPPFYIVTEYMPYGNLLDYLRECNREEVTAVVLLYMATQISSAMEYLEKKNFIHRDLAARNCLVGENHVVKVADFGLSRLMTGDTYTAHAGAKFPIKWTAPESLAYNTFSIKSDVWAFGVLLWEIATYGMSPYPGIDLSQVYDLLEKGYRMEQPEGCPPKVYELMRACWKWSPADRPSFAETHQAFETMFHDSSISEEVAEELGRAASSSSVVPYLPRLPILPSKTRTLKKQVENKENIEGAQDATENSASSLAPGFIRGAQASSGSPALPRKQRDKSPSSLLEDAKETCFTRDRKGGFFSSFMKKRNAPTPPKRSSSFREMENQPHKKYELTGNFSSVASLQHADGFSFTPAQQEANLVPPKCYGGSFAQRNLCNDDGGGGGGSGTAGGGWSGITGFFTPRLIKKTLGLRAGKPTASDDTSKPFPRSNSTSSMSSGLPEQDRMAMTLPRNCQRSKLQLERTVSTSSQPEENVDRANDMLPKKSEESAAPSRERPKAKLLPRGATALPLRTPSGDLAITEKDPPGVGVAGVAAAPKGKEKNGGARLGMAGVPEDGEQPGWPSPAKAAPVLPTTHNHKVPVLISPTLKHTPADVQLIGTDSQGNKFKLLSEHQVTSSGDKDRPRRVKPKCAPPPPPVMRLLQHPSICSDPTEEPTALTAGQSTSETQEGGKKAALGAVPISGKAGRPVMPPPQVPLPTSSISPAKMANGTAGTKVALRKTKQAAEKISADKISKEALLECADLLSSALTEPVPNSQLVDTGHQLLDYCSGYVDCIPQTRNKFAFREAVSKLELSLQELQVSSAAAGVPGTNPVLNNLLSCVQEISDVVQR
Chain of Dual specificity mitogen-activated protein kinase kinase 4 (Homo sapiens) (P45985 whole entry): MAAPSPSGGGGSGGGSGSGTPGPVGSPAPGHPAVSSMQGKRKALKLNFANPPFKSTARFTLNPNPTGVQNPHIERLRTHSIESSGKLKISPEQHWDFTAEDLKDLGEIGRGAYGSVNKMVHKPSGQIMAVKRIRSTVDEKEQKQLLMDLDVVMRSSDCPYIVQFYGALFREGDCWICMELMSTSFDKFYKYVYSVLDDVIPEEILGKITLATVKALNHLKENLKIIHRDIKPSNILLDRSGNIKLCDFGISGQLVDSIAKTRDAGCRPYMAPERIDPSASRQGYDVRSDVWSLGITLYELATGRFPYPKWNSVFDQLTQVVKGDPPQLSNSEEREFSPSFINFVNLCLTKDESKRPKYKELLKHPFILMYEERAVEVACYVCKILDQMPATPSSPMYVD
Chain of Testis-specific serine/threonine-protein kinase 4 (Homo sapiens) (Q6SA08 whole entry, the tested form may be a part): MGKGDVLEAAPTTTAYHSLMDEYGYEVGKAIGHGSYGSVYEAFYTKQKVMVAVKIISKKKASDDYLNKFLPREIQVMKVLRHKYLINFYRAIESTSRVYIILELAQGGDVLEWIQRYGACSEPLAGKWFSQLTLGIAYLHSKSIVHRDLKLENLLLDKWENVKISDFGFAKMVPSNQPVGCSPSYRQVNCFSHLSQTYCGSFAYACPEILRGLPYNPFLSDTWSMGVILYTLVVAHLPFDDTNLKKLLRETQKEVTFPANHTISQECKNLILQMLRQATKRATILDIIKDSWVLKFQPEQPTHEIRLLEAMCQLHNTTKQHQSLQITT

Regarding `Cc1cc(C)c(CNc2nc(Cl)nc3c2ncn3C2CCCC2)c(=O)[nH]1`, the Activity in the series filed under Homo sapiens was 122%; in series [1], 133%; in series [2], 134%; in series [3], “Non-Toxic”; in series [4], “Non-Toxic”; in [5], 94%. In addition, the Activity in [6] came out at 138%; in [7], 114%; in series [8] it was 132%; in [9], 98%; in series [10] it was 96%; in series [11] it was 95.5%. The Activity in [12] was 104%; in series [13], 97%; in series [14] it was 99.5%; in series [15], 109%; in series [16], 115%; in series [17] it was 120%. Besides, the Activity in series [18] was determined as 115%; in [19], 112%; in series [20], 110%; in [21] it was 95%. Further, the IC50 in the series with DLD-1 came to 136 nM. In addition, the outcome in the series with SW-620 was Active.

A word on the IC50: it is the concentration at which inhibition is half-maximal.
